Test results from patent publication US20230272390A1, “COMPOSITIONS AND METHODS FOR HEMOGLOBIN PRODUCTION” (THE CHILDREN'S HOSPITAL OF PHILADELPHIA, priority 2020, published 2023).

Assays:
ZNF410 [1] = assay: RNA-seq in ZNF410 depleted differentiated HUDEP-2 cells; assay type: cell-based, human; conditions: vs non-targeting sgRNA
Experimental: HUDEP-2 cells were cultured and differentiated as described (Kurita, et al. (2013) PLoS One 8:e59890). Briefly, StemSpan™ Serum-Free Expansion Medium (SFEM) supplemented with 50 ng/ml human stem cell factor (SCF), 10 μM dexamethasone, 1 μg/ml doxycycline, 3 IU/ml erythropoietin and 1% penicillin/streptomycin was utilized for routine cell maintenance. Cell density was kept at 0.1-1×10^6/ml. HUDEP-2 cells were differentiated for 6-7 days in IMDM supplemented with 50 ng/ml human SCF, 3 IU/ml erythropoietin, 2.5% fetal bovine serum, 250 μg/ml holo-transferrin, 10 ng/ml heparin, 10 μg/ml insulin, 1 μg/ml doxycycline and 1% penicillin/streptomycin.
Lentivirus was produced as described (Grevet, et al. (2018) Science 361:285-290). Briefly, 10-20 μg of expression vectors, 5-10 μg of pVSVG (pMD2.G) and 7.5-15 μg of psPAX2 package plasmids, and 80 μl of 1 mg/ml polyethylenimine (PEI) were mixed, incubated for 15-20 minutes, and added to HEK293T cells grown in 10 cm plates to above 90% confluence. Media were replaced 6-8 hours post transfection, virus was collected 24 hours and 48 hours post-transfection and pooled. For infection, virus-containing supernatant was mixed with the indicated cell lines with 8 μg/ml polybrene and 10 mM HEPES, and then spun at 2250 rpm for 1.5 hours at room temperature. Infected HUDEP-2 cells were selected for mCherry+ or GFP+ cell sorting at 48 hours post-infection.
(§1) Total RNAs were purified as described above. Sequencing libraries were then constructed using 100 ng of purified total RNA using the ScriptSeg™ Complete Kit (Illumina cat #BHMR1224) according to manufacturer's protocol. RNA was subjected to rRNA depletion using the Ribo-Zero™ removal reagents and fragmented. First strand cDNA was synthesized using a 5′ tagged random hexamer, and reversely transcribed, followed by annealing of a 5′ tagged, 3′-end blocked terminal-tagged oligo for second strand synthesis. The Di-tagged cDNA fragments were purified, barcoded, and PCR-amplified for 15 cycles.
(§2) The size and quality of each library were evaluated by Bioanalyzer 2100 (Agilent Technologies, Santa Clara, Calif.), and quantified using qPCR. Libraries were sequenced in paired-end mode on a NextSeq 500 instrument to generate 2×76 bp reads using Illumina-supplied kits. The sequence reads were processed using the ENCODE3 long RNA-seq pipeline (encodeproject.org/pipelines/ENCPL002LPE/). In brief, reads were mapped to the human genome (hg38 assembly) using STAR, followed by RSEM for gene quantifications.
(§3) The normalized FPKM (fragments per kilo base per million mapped reads) for each gene was averaged in 2 replicates and then filtered to keep those with average FPKM at least 10 in both HUDEP-2 cells and primary erythroblasts, resulting in ˜5000 high abundant genes each cell type for further analysis. Log2 fold-change was calculated from FPKM of sgRNA targeting ZNF410 compared to control sgRNA (non-targeting sgRNA) using the DESeq2 method, and top changed genes were selected with fold-change at least 1.5 and p-value<0.05. Commonly changed genes in both independent sgRNAs were considered to be significant. Scatter plots were generated using ggplot2 in RStudio for all expressed genes (FPKM>5).
(§4) ZNF410 functions as a transcriptional activator (Benanti, et al. (2002) Mol. Cell Biol., 22:7385-7397). To understand how ZNF410 regulates the transcription of γ-globin genes, RNA-seq experiments were performed in ZNF410 depleted differentiated HUDEP-2 cells and primary human erythroblasts.

ZNF410 [2] = assay: RNA-seq in ZNF410 depleted primary human erythroblasts (CD34+ HSPC derived); assay type: cell-based; conditions: primary CD34+ cells (erythroblasts), vs non-targeting sgRNA
Experimental: Primary human CD34+ HSPCs from mobilized peripheral blood were purchased from the Fred Hutchinson Cancer Research Center. Human CD34+ HSPCs were differentiated using a three-phase culture system as described (Grevet, et al. (2018) Science 361:285-290). Briefly, IMDM supplemented with 3 IU/ml erythropoietin, 2.5% human male AB serum, 10 ng/ml heparin, and 10 μg/ml insulin was used as base medium. For phase I medium, 100 ng/ml human SCF, 5 ng/ml IL-3, and 250 μg/ml holo-transferrin were supplemented. For phase II medium, 100 ng/ml human SCF and 250 μg/ml holo-transferrin were added. For phase III medium, 1.25 mg/ml holo-transferrin was supplemented.
Commercial sgRNAs were purchased from IDT (Coralville, Iowa) or Synthego (Menlo Park, Calif.). To assemble the RNP complexes, 100 pmol sgRNA and 50 pmol SpCas9 protein (from IDT) were incubated at room temperature for 15 minutes. CD34+ HSPCs (50k-100k) at Day 3-4 of phase I culture were electroporated using P3 Primary Cell 4D Nucleofector™ X Kit (from Lonza) with the program DZ100 (Bak, et al. (2018) Nat. Protoc., 13:358-376).
as §1, §2, §3, §4

Substance | log2(sgRNA/NT) AC092490.1 transcript (ZNF410 [1]) | log2(sgRNA/NT) AC104389.5 transcript (ZNF410 [1]) | log2(sgRNA/NT) AK1 transcript (ZNF410 [1]) | log2(sgRNA/NT) CD63 transcript (ZNF410 [1]) | log2(sgRNA/NT) CHD4 transcript (ZNF410 [1]) | log2(sgRNA/NT) CKB transcript (ZNF410 [1]) | log2(sgRNA/NT) FOS transcript (ZNF410 [1]) | log2(sgRNA/NT) H1F0 transcript (ZNF410 [1]) | log2(sgRNA/NT) HBG1/2 transcript (ZNF410 [1]) | log2(sgRNA/NT) PRG2 transcript (ZNF410 [1]) | log2(sgRNA/NT) S100A10 transcript (ZNF410 [1]) | log2(sgRNA/NT) SCARNA3 transcript (ZNF410 [1]) | log2(sgRNA/NT) TUBA1A transcript (ZNF410 [1]) | log2(sgRNA/NT) AC092490.1 transcript (ZNF410 [2]) | log2(sgRNA/NT) ACSL6 transcript (ZNF410 [2]) | log2(sgRNA/NT) CBX6 transcript (ZNF410 [2]) | log2(sgRNA/NT) CHD4 transcript (ZNF410 [2]) | log2(sgRNA/NT) HBG1/2 transcript (ZNF410 [2]) | log2(sgRNA/NT) HSPB1 transcript (ZNF410 [2]) | log2(sgRNA/NT) PAFAH1B3 transcript (ZNF410 [2]) | also measured
ZNF410 sgRNA#2: sgRNA targeting the DNA-binding domain of ZNF410, CTCATCAGTGCCAAGTCTGT (SEQ ID NO: 5) (listed as DNA, chemistry not given here) | −1.50 | 4.01 | 1.83 | 1.75 | −1.23 | 2.24 | −1.88 | 2.13 | 4.28 | 2.17 | −1.59 | −1.30 | −1.07 | −1.47 | −1.47 | −2.01 | −1.08 | 1.75 | 2.15 | 1.40 | log2(sgRNA/NT) PLA2G6 transcript (ZNF410 [1]): −1.01; log2(sgRNA/NT) RNU5B-1 transcript (ZNF410 [1]): 3.60; log2(sgRNA/NT) RNU5E-1 transcript (ZNF410 [1]): 1.82; log2(sgRNA/NT) RNU6-11P transcript (ZNF410 [1]): −1.11; log2(sgRNA/NT) SCARNA18 transcript (ZNF410 [1]): −1.20; log2(sgRNA/NT) SLC2A3P1 transcript (ZNF410 [1]): −1.49; log2(sgRNA/NT) SNORD97 transcript (ZNF410 [1]): 2.29; log2(sgRNA/NT) AC104389.5 transcript (ZNF410 [2]): 1.43; log2(sgRNA/NT) AC130456.3 transcript (ZNF410 [2]): −2.03; log2(sgRNA/NT) CDKN1A transcript (ZNF410 [2]): 1.38; log2(sgRNA/NT) IFI27 transcript (ZNF410 [2]): 1.78; log2(sgRNA/NT) KDM7A transcript (ZNF410 [2]): −1.32; log2(sgRNA/NT) PKN1 transcript (ZNF410 [2]): 1.43; log2(sgRNA/NT) PRDX5 transcript (ZNF410 [2]): −1.09; log2(sgRNA/NT) RN7SL471P transcript (ZNF410 [2]): 1.60; log2(sgRNA/NT) SELENOW transcript (ZNF410 [2]): 1.67; log2(sgRNA/NT) SMOX transcript (ZNF410 [2]): −1.24; log2(sgRNA/NT) STUB1 transcript (ZNF410 [2]): 1.40; log2(sgRNA/NT) TMCC2 transcript (ZNF410 [2]): −1.69; log2(sgRNA/NT) ZNF410 transcript (ZNF410 [2]): −1.24
ZNF410 sgRNA#1: sgRNA targeting the DNA-binding domain of ZNF410, GAACCACCAGATGTTTTCGG (SEQ ID NO: 4) (listed as DNA, chemistry not given here) | −1.45 | 3.95 | 1.99 | 1.90 | −0.99 | 2.44 | −1.32 | 2.41 | 4.26 | 2.09 | −1.60 | −0.89 | −1.06 | −1.50 | −1.67 | −1.56 | −0.93 | 1.47 | 2.01 | 1.35 | log2(sgRNA/NT) ATF5 transcript (ZNF410 [1]): 1.65; log2(sgRNA/NT) GLIPR2 transcript (ZNF410 [1]): −1.14; log2(sgRNA/NT) MIF transcript (ZNF410 [1]): 1.92; log2(sgRNA/NT) PPP4R1 transcript (ZNF410 [1]): −0.95; log2(sgRNA/NT) RF00019 transcript (ZNF410 [1]): −2.43; log2(sgRNA/NT) TMCC2 transcript (ZNF410 [1]): −1.18; log2(sgRNA/NT) TMSB10 transcript (ZNF410 [1]): 1.79; log2(sgRNA/NT) COA4 transcript (ZNF410 [2]): 1.30; log2(sgRNA/NT) DYNLT1 transcript (ZNF410 [2]): 1.27; log2(sgRNA/NT) GPCPD1 transcript (ZNF410 [2]): −0.93; log2(sgRNA/NT) ISOC2 transcript (ZNF410 [2]): 1.34; log2(sgRNA/NT) PKN1 transcript (ZNF410 [2]): 1.32; log2(sgRNA/NT) PRDX5 transcript (ZNF410 [2]): −1.00; log2(sgRNA/NT) RPS19BP1 transcript (ZNF410 [2]): 1.42; log2(sgRNA/NT) SELENOW transcript (ZNF410 [2]): 1.55; log2(sgRNA/NT) SMOX transcript (ZNF410 [2]): −1.45; log2(sgRNA/NT) SPC25 transcript (ZNF410 [2]): −0.93; log2(sgRNA/NT) STUB1 transcript (ZNF410 [2]): 1.46; log2(sgRNA/NT) TMCC2 transcript (ZNF410 [2]): −2.01; log2(sgRNA/NT) ZNF410 transcript (ZNF410 [2]): −1.49
